According to BindingDB's records for doi:10.1016/s0960-894x(02)00988-5 (Merck Research Laboratories, 2003):

test: Inhibition over 48 hr of BAL strain HIV infrction of HeLa Magi cells expressing CCR5

**Q.** With `O=C(O)[C@@H](CC1CCC1)N1C[C@H](CN2CCC(N(CC3CC3)c3ncccn3)CC2)[C@@H](c2cccc(F)c2)C1` [(R)-3-Cyclobutyl-2-[(3S,4S)-3-[4-(cyclopropylmethyl-pyrimidin-2-yl-amino)-piperidin-1-ylmethyl]-4-(3-fluoro-phenyl)-pyrrolidin-1-yl]-propionic acid] as the compound, how does the IC50 read?
**A.** 11 nM

**Q.** With `CCCN(c1ncccn1)C1CCN(C[C@H]2CN([C@@H](C(=O)O)C3CCCCC3)C[C@@H]2c2cccc(F)c2)CC1` [(R)-Cyclohexyl-{(3S,4S)-3-(3-fluoro-phenyl)-4-[4-(propyl-pyrimidin-2-yl-amino)-piperidin-1-ylmethyl]-pyrrolidin-1-yl}-acetic acid] as the compound, how does the IC50 read?
**A.** 33 nM

**Q.** With `CCCN(c1ncc(C(F)(F)F)cn1)C1CCN(C[C@H]2CN([C@H](CC3CCC3)C(=O)O)C[C@@H]2c2cccc(F)c2)CC1` [(R)-3-Cyclobutyl-2-((3S,4S)-3-(3-fluoro-phenyl)-4-{4-[propyl-(5-trifluoromethyl-pyrimidin-2-yl)-amino]-piperidin-1-ylmethyl}-pyrrolidin-1-yl)-propionic acid] as the compound, how does the IC50 read?
**A.** 100 nM

**Q.** With `CCCN(c1nccc(OC)n1)C1CCN(C[C@H]2CN([C@H](CC3CCC3)C(=O)O)C[C@@H]2c2cccc(F)c2)CC1` [(R)-3-Cyclobutyl-2-((3S,4S)-3-(3-fluoro-phenyl)-4-{4-[(4-methoxy-pyrimidin-2-yl)-propyl-amino]-piperidin-1-ylmethyl}-pyrrolidin-1-yl)-propionic acid] as the compound, how does the IC50 read?
**A.** 100 nM

**Q.** Which IC50 does the source give for `CCCN(c1ncc(F)cn1)C1CCN(C[C@H]2CN([C@H](CC3CCC3)C(=O)O)C[C@@H]2c2cccc(F)c2)CC1` [(R)-3-Cyclobutyl-2-((3S,4S)-3-(3-fluoro-phenyl)-4-{4-[(5-fluoro-pyrimidin-2-yl)-propyl-amino]-piperidin-1-ylmethyl}-pyrrolidin-1-yl)-propionic acid] here?
**A.** 33 nM

**Q.** Which IC50 does the source give for `CCN(c1ncccn1)C1CCN(C[C@H]2CN([C@H](CC3CCC3)C(=O)O)C[C@@H]2c2cccc(F)c2)CC1` [(R)-3-Cyclobutyl-2-[(3S,4S)-3-[4-(ethyl-pyrimidin-2-yl-amino)-piperidin-1-ylmethyl]-4-(3-fluoro-phenyl)-pyrrolidin-1-yl]-propionic acid] here?
**A.** 100 nM

**Q.** For `C=CCN(c1ccc(C(F)(F)F)cn1)C1CCN(C[C@H]2CN(C(=O)C3CCCCC3)C[C@@H]2c2ccccc2)CC1` [((3S,4S)-3-{4-[Allyl-(5-trifluoromethyl-pyridin-2-yl)-amino]-piperidin-1-ylmethyl}-4-phenyl-pyrrolidin-1-yl)-cyclohexyl-methanone], which IC50 is on record?
**A.** 37 nM

**Q.** For `C=CCN(c1cccnc1)C1CCN(C[C@H]2CN(C(=O)C3CCCCC3)C[C@@H]2c2ccccc2)CC1` [{(3S,4S)-3-[4-(Allyl-pyridin-3-yl-amino)-piperidin-1-ylmethyl]-4-phenyl-pyrrolidin-1-yl}-cyclohexyl-methanone], which IC50 is on record?
**A.** 12 nM

**Q.** For `C=CCN(c1ccccn1)C1CCN(C[C@H]2CN(C(=O)C3CCCCC3)C[C@@H]2c2ccccc2)CC1` [{(3S,4S)-3-[4-(Allyl-pyridin-2-yl-amino)-piperidin-1-ylmethyl]-4-phenyl-pyrrolidin-1-yl}-cyclohexyl-methanone], which IC50 is on record?
**A.** 11 nM

**Q.** With `CCCN(c1nccc(C(F)(F)F)n1)C1CCN(C[C@H]2CN([C@H](CC3CCC3)C(=O)O)C[C@@H]2c2cccc(F)c2)CC1` [(R)-3-Cyclobutyl-2-((3S,4S)-3-(3-fluoro-phenyl)-4-{4-[propyl-(4-trifluoromethyl-pyrimidin-2-yl)-amino]-piperidin-1-ylmethyl}-pyrrolidin-1-yl)-propionic acid] as the compound, how does the IC50 read?
**A.** 450 nM

**Q.** Which IC50 does the source give for `CCCN(c1ncccn1)C1CCN(C[C@H]2CN([C@H](CC3CCC3)C(=O)O)C[C@@H]2c2cccc(F)c2)CC1` [(R)-3-cyclobutyl-2-((3S,4S)-3-(3-fluorophenyl)-4-((4-(propyl(pyrimidin-2-yl)amino)piperidin-1-yl)methyl)pyrrolidin-1-yl)propanoic acid] here?
**A.** 11 nM

**Q.** For `CCCN(c1cncnc1)C1CCN(C[C@H]2CN([C@H](CC3CCC3)C(=O)O)C[C@@H]2c2cccc(F)c2)CC1` [(R)-3-Cyclobutyl-2-{(3S,4S)-3-(3-fluoro-phenyl)-4-[4-(propyl-pyrimidin-5-yl-amino)-piperidin-1-ylmethyl]-pyrrolidin-1-yl}-propionic acid], which IC50 is on record?
**A.** 11 nM

**Q.** For `CCCN(c1cccnc1)C1CCN(C[C@H]2CN([C@@H](C(=O)O)C3CCCCC3)C[C@@H]2c2ccccc2)CC1` [(R)-Cyclohexyl-{(3S,4S)-3-phenyl-4-[4-(propyl-pyridin-3-yl-amino)-piperidin-1-ylmethyl]-pyrrolidin-1-yl}-acetic acid], which IC50 is on record?
**A.** 33 nM

test: as above; remark: another data set of the same source

**Q.** Which IC50 does the source give for `CCCN(c1ccccn1)C1CCN(C[C@H]2CN(C(=O)c3ccccc3Cl)C[C@@H]2c2ccccc2)CC1` [(2-Chloro-phenyl)-{(3S,4S)-3-phenyl-4-[4-(propyl-pyridin-2-yl-amino)-piperidin-1-ylmethyl]-pyrrolidin-1-yl}-methanone] here?
**A.** 300 nM

**Q.** For `CCCN(c1ncccn1)C1CCN(C[C@H]2CN([C@@H](C(=O)O)C3CCCCC3)C[C@@H]2c2ccccc2)CC1` [(R)-2-cyclohexyl-2-((3S,4S)-3-phenyl-4-((4-(propyl(pyrimidin-2-yl)amino)piperidin-1-yl)methyl)pyrrolidin-1-yl)acetic acid], which IC50 is on record?
**A.** 33 nM

**Q.** For `CCCN(c1ccccn1)C1CCN(C[C@H]2CN(C(=O)C3CCCCC3)C[C@@H]2c2ccccc2)CC1` [cyclohexyl((3S,4S)-3-phenyl-4-((4-(propyl(pyridin-2-yl)amino)piperidin-1-yl)methyl)pyrrolidin-1-yl)methanone], which IC50 is on record?
**A.** 100 nM

**Q.** Which IC50 does the source give for `CCCN(c1ccccn1)C1CCN(C[C@H]2CN(C(=O)C3CCC3)C[C@@H]2c2ccccc2)CC1` [cyclobutyl((3S,4S)-3-phenyl-4-((4-(propyl(pyridin-2-yl)amino)piperidin-1-yl)methyl)pyrrolidin-1-yl)methanone] here?
**A.** 300 nM

**Q.** Which IC50 does the source give for `CCCN(c1ccncn1)C1CCN(C[C@H]2CN([C@H](CC3CCC3)C(=O)O)C[C@@H]2c2cccc(F)c2)CC1` [(R)-3-Cyclobutyl-2-{(3S,4S)-3-(3-fluoro-phenyl)-4-[4-(propyl-pyrimidin-4-yl-amino)-piperidin-1-ylmethyl]-pyrrolidin-1-yl}-propionic acid] here?
**A.** 33 nM

**Q.** For `O=C(C1CCCCC1)N1C[C@H](CN2CCC(N(CC3CC3)c3ccccn3)CC2)[C@@H](c2ccccc2)C1` [Cyclohexyl-{(3S,4S)-3-[4-(cyclopropylmethyl-pyridin-2-yl-amino)-piperidin-1-ylmethyl]-4-phenyl-pyrrolidin-1-yl}-methanone], which IC50 is on record?
**A.** 33 nM

**Q.** Which IC50 does the source give for `CCCN(c1ccccn1)C1CCN(C[C@H]2CN([C@@H](C(=O)O)C3CCCCC3)C[C@@H]2c2ccccc2)CC1` [(R)-Cyclohexyl-{(3S,4S)-3-phenyl-4-[4-(propyl-pyridin-2-yl-amino)-piperidin-1-ylmethyl]-pyrrolidin-1-yl}-acetic acid] here?
**A.** 100 nM

**Q.** For `CCCN(c1ccccn1)C1CCN(C[C@H]2CN(C(=O)N3CCCC3)C[C@@H]2c2ccccc2)CC1` [{(3S,4S)-3-Phenyl-4-[4-(propyl-pyridin-2-yl-amino)-piperidin-1-ylmethyl]-pyrrolidin-1-yl}-pyrrolidin-1-yl-methanone], which IC50 is on record?
**A.** 300 nM
